In ChEMBL document CHEMBL1125524, “Adenosine A1 antagonists. 2. Structure-activity relationships on diuretic activities and protective effects against acute renal failure” (J Med Chem, 1992):

How the values were obtained:
Rattus norvegicus [1] = assay: Serum creatinine concentration measured after intraperitoneal administration of 10 mg/kg of compound to rats(vehicle 3.93+/-0.45); type: functional
Rattus norvegicus [2] = assay: Percent inhibition of serum creatinine by the compound given as ratio of Cr value in treated to vehicle treated ones after intraperitoneal administration of 1 mg/kg of compound to rats(vehicle 3.62+/-0.52); type: functional; details: ip
Rattus norvegicus [3] = assay: Ratio of urinary excretion value (urinary volume) in treated rats to that in control rats, at a peroral dose of 0.1 mg/Kg; type: functional, Urine
Rattus norvegicus [4] = assay: Effect on urinary excretion potassium and sodium after oral administration of 1.6 mg/kg to rats(potassium and sodium excretion in control rat is 0.147+/-0.015); type: functional, Urine
Rattus norvegicus [5] = assay: Ratio of urinary excretion value (urinary volume) in treated rats to that in control rats, at a peroral dose of 1.6 mg/Kg; type: functional, Urine
Rattus norvegicus [6] = assay: Percent inhibition of serum creatinine by the compound given as ratio of Cr value in treated to vehicle treated ones after intraperitoneal administration of 10 mg/kg of compound to rats(vehicle 3.93+/-0.45); type: functional; details: ip
Rattus norvegicus [7] = assay: Ratio of urinary excretion value (Na+ concentration) in treated rats to that in control rats, at a peroral dose of 0.1 mg/Kg; type: functional, Urine
Rattus norvegicus [8] = assay: Urea nitrogen concentration measured after intraperitoneal administration of 10 mg/kg of compound to rats(vehicle 129.1+/-14.5); type: functional
Rattus norvegicus [9] = assay: Oral diuretic activity was measured after oral administration of 1.6 mg/kg to rats(control volume is 0.96+/-0.09); type: functional, Urine
Rattus norvegicus [10] = assay: Ratio of urinary excretion value (Na+ concentration) in treated rats to that in control rats, at a peroral dose of 1.6 mg/Kg; type: functional, Urine
Rattus norvegicus [11] = assay: Ratio of urinary excretion value (Na+ concentration) in treated rats to that in control rats, at a peroral dose of 0.4 mg/Kg; type: functional, Urine
Rattus norvegicus [12] = assay: Oral diuretic activity was measured after oral administration of 0.4 mg/kg to rats(control volume is 1.15+/-0.17); type: functional, Urine
Rattus norvegicus [13] = assay: Effect on urinary excretion potassium and sodium after oral administration of 0.4 mg/kg to rats(potassium and sodium excretion in control rat is 0.191+/-0.020); type: functional, Urine
Rattus norvegicus [14] = assay: Serum creatinine concentration measured after intraperitoneal administration of 1 mg/kg of compound to rats(vehicle 3.62+/-0.52); type: functional
Rattus norvegicus [15] = assay: Percent inhibition of Urea nitrogen by the compound given as ratio of UN value in treated to vehicle treated ones after intraperitoneal administration of 1 mg/kg of compound to rats(vehicle 105.2+/-14.9); type: functional; details: ip
Rattus norvegicus [16] = assay: Effect on urinary excretion potassium and sodium after oral administration of 0.1 mg/kg to rats(potassium and sodium excretion in control rat is 0.133+/-0.022); type: functional, Urine
Rattus norvegicus [17] = assay: Urea nitrogen concentration measured after intraperitoneal administration of 1 mg/kg of compound to rats(vehicle 105.2+/-14.9); type: functional
Rattus norvegicus [18] = assay: Ratio of sodium ion/potassium ion concentration in treated rats to that in control rats, at a peroral dose of 1.6 mg/Kg; type: functional
Rattus norvegicus [19] = assay: Ratio of sodium ion/potassium ion concentration in treated rats to that in control rats, at a peroral dose of 0.1 mg/Kg; type: functional
Rattus norvegicus [20] = assay: Percent inhibition of Urea nitrogen by the compound given as ratio of UN value in treated to vehicle treated ones after intraperitoneal administration of 10 mg/kg of compound to rats(vehicle 129.1+/-14.5); type: functional; details: ip
Rattus norvegicus [21] = assay: Oral diuretic activity was measured after oral administration of 0.1 mg/kg to rats(control volume is 1.15+/-0.12); type: functional, Urine
Rattus norvegicus [22] = assay: Ratio of urinary excretion value (urinary volume) in treated rats to that in control rats, at a peroral dose of 0.4 mg/Kg; type: functional, Urine
Rattus norvegicus [23] = assay: Ratio of sodium ion/potassium ion concentration in treated rats to that in control rats, at a peroral dose of 0.4 mg/Kg; type: functional
Adenosine A2 receptor = Adenosine A2 receptor (Rattus norvegicus, UniProt P29276+P30543)
Rattus norvegicus [24] = assay: Ratio of urinary excretion value (Na+ concentration) in treated rats to that in control rats, at a peroral dose of 25 mg/Kg; type: functional, Urine
Rattus norvegicus [25] = assay: Percent inhibition of serum creatinine by the compound given as ratio of Cr value in treated to vehicle treated ones after intraperitoneal administration of 10 mg/kg of compound to rats(vehicle 4.41+/-0.16); type: functional; details: ip
Rattus norvegicus [26] = assay: Ratio of urinary excretion value (Na+ concentration) in treated rats to that in control rats, at a peroral dose of 6.25 mg/Kg; type: functional, Urine
Rattus norvegicus [27] = assay: Percent inhibition of Urea nitrogen by the compound given as ratio of UN value in treated to vehicle treated ones after intraperitoneal administration of 1 mg/kg of compound to rats(vehicle 154.2+/-5); type: functional; details: ip
Rattus norvegicus [28] = assay: Percent inhibition of serum creatinine by the compound given as ratio of Cr value in treated to vehicle treated ones after intraperitoneal administration of 1 mg/kg of compound to rats(vehicle 4.70+/-0.17); type: functional; details: ip
Rattus norvegicus [29] = assay: Percent inhibition of Urea nitrogen by the compound given as ratio of UN value in treated to vehicle treated ones after intraperitoneal administration of 10 mg/kg of compound to rats(vehicle 145.1+/-7.4); type: functional; details: ip
Rattus norvegicus [30] = assay: Urea nitrogen concentration measured after intraperitoneal administration of 10 mg/kg of compound to rats(vehicle 145.1+/-7.4); type: functional
Rattus norvegicus [31] = assay: Ratio of sodium ion/potassium ion concentration in treated rats to that in control rats, at a peroral dose of 25 mg/Kg; type: functional
Rattus norvegicus [32] = assay: Oral diuretic activity was measured after oral administration of 25 mg/kg to rats(control volume is 1.21+/-0.08); type: functional, Urine
Rattus norvegicus [33] = assay: Ratio of urinary excretion value (urinary volume) in treated rats to that in control rats, at a peroral dose of 6.25 mg/Kg; type: functional, Urine
Rattus norvegicus [34] = assay: Ratio of urinary excretion value (urinary volume) in treated rats to that in control rats, at a peroral dose of 25 mg/Kg; type: functional, Urine
Rattus norvegicus [35] = assay: Urea nitrogen concentration measured after intraperitoneal administration of 1 mg/kg of compound to rats(vehicle 154.2+/-5); type: functional
Rattus norvegicus [36] = assay: Serum creatinine concentration measured after intraperitoneal administration of 1 mg/kg of compound to rats(vehicle 4.70+/-0.17); type: functional
Rattus norvegicus [37] = assay: Effect on urinary excretion potassium and sodium after oral administration of 25 mg/kg to rats(potassium and sodium excretion in control rat is 0.180+/-0.014); type: functional, Urine
Rattus norvegicus [38] = assay: Serum creatinine concentration measured after intraperitoneal administration of 10 mg/kg of compound to rats(vehicle 4.41+/-0.16); type: functional
Rattus norvegicus [39] = assay: Serum creatinine concentration measured after intraperitoneal administration of 10 mg/kg of compound to rats(vehicle 3.22+/-0.35); type: functional
Rattus norvegicus [40] = assay: Percent inhibition of Urea nitrogen by the compound given as ratio of UN value in treated to vehicle treated ones after intraperitoneal administration of 10 mg/kg of compound to rats(vehicle 110.7+/-9.4); type: functional; details: ip
Rattus norvegicus [41] = assay: Percent inhibition of serum creatinine by the compound given as ratio of Cr value in treated to vehicle treated ones after intraperitoneal administration of 10 mg/kg of compound to rats(vehicle 3.22+/-0.35); type: functional; details: ip

CCn1c(=O)c2nc(C(C3CC3)C3CC3)[nH]c2n(CC)c1=O gave a Cr (Rattus norvegicus [1]) of 1.74 mg/dL, an inhibition in vivo at 1 mg/kg (Rattus norvegicus [2]) of 10% and a T/C (Rattus norvegicus [3]) of 0.72. For the same compound, the Na (Rattus norvegicus [4]) was 0.312 m equiv 6hr-1 100g-1, the T/C (Rattus norvegicus [5]) was 1.71 and the inhibition in vivo at 10 mg/kg (Rattus norvegicus [6]) was 56%. For the same compound, the T/C (Rattus norvegicus [7]) was 0.85, the UN (Rattus norvegicus [8]) was 50.6 mg/dL and the Urine volume (Rattus norvegicus [9]) was 1.72 ml 6hr-1 100g-1. For the same compound, the T/C (Rattus norvegicus [10]) was 2.12, the T/C (Rattus norvegicus [11]) was 2.27 and the Urine volume (Rattus norvegicus [12]) was 2.11 ml 6hr-1 100g-1. It also gave a Na (Rattus norvegicus [13]) of 0.433 m equiv 6hr-1 100g-1, a Cr (Rattus norvegicus [14]) of 3.24 mg/dL and an inhibition in vivo at 1 mg/kg (Rattus norvegicus [15]) of 6%. For the same compound, the Na (Rattus norvegicus [16]) was 0.113 m equiv 6hr-1 100g-1, the UN (Rattus norvegicus [17]) was 98.5 mg/dL and the “Na+/K+” value (Rattus norvegicus [18]) was 1.71. For the same compound, the “Na+/K+” value (Rattus norvegicus [19]) was 1.37, the inhibition in vivo at 10 mg/kg (Rattus norvegicus [20]) was 61% and the Urine volume (Rattus norvegicus [21]) was 0.83 ml 6hr-1 100g-1. The T/C (Rattus norvegicus [22]) was 1.84, the “Na+/K+” value (Rattus norvegicus [23]) was 1.63 and the Ki (Adenosine A2 receptor) was 690 nM.
Cn1c(=O)c2c(ncn2C)n(C)c1=O [CAFFEINE] showed a T/C (Rattus norvegicus [24]) of 1.55, an inhibition in vivo at 10 mg/kg (Rattus norvegicus [25]) of 35% and a T/C (Rattus norvegicus [26]) of 1.1. For the same compound, the inhibition in vivo at 1 mg/kg (Rattus norvegicus [27]) was 18%, the inhibition in vivo at 1 mg/kg (Rattus norvegicus [28]) was 22% and the inhibition in vivo at 10 mg/kg (Rattus norvegicus [29]) was 25%. The UN (Rattus norvegicus [30]) was 109 mg/dL, the “Na+/K+” value (Rattus norvegicus [31]) was 1.28 and the Urine volume (Rattus norvegicus [32]) was 1.84 ml 6hr-1 100g-1. It also gave a T/C (Rattus norvegicus [33]) of 0.92, a T/C (Rattus norvegicus [34]) of 1.68 and a UN (Rattus norvegicus [35]) of 125.7 mg/dL. It also gave a Cr (Rattus norvegicus [36]) of 3.68 mg/dL, a Na (Rattus norvegicus [37]) of 0.28 m equiv 6hr-1 100g-1 and a Cr (Rattus norvegicus [38]) of 2.85 mg/dL.
Work on NS(=O)(=O)c1cc(C(=O)O)c(NCc2ccco2)cc1Cl [FUROSEMIDE] yielded a T/C (Rattus norvegicus [24]) of 1.64, a T/C (Rattus norvegicus [5]) of 1 and a T/C (Rattus norvegicus [26]) of 1.62. The “Na+/K+” value (Rattus norvegicus [31]) was 1.05, the T/C (Rattus norvegicus [10]) was 0.94 and the Urine volume (Rattus norvegicus [32]) was 2.12 ml 6hr-1 100g-1. It also gave a T/C (Rattus norvegicus [33]) of 1.59, a T/C (Rattus norvegicus [34]) of 1.75 and a Cr (Rattus norvegicus [39]) of 4.17 mg/dL. For the same compound, the “Na+/K+” value (Rattus norvegicus [18]) was 0.87, the inhibition in vivo at 10 mg/kg (Rattus norvegicus [40]) was -36% and the inhibition in vivo at 10 mg/kg (Rattus norvegicus [41]) was -30%.
